According to patent US10155021B2, “Antimicrobial 4-oxoquinolizines” (Emergent Product Development Gaithersburg Inc., priority 2011, dated 2018):
Values after ≈ are worked out from the molar mass of the structure shown. Like-named read-outs stand apart in the source and are kept apart here. Marks after values point to notes of the source that are not given here.

Experiments:
A. baumannii A401 [1] = experiment: MIC without and with sub-inhibitory polymyxin B (Example 4); assay type: cell-based, Acinetobacter baumannii; conditions: for MIC: Acinetobacter baumannii, A401, A baumannii A 401, without polymyxin B, read-out: MIC without PB
A. baumannii A472 [2] = experiment: as above; assay type: cell-based, Acinetobacter baumannii; conditions: for MIC +[…] PB: +[…] polymyxin B; for MIC: Acinetobacter baumannii, A472, A. baumannii A472, without polymyxin B, read-out: MIC without PB
A. baumannii A473 [3] = experiment: as above; assay type: cell-based, Acinetobacter baumannii; conditions: for MIC: Acinetobacter baumannii, A473, A. baumannii A473, without polymyxin B, read-out: MIC without PB
A. baumannii A489 [4] = experiment: as above; assay type: cell-based, Acinetobacter baumannii; conditions: for MIC +[…] PB / MIC without PB/MIC + PB: A. baumannii A489; for MIC +[…] PB: +[…] polymyxin B; for MIC without PB/MIC + PB: ratio; for MIC: Acinetobacter baumannii, A489, A. baumannii A489, without polymyxin B, read-out: MIC without PB
[5] = test system: Acinetobacter sp. (H064200250); experiment: Preliminary MBC without and with sub-inhibitory polymyxin B (Example 4); assay type: cell-based; conditions: preliminary MBC; for MBC +[…] PB: +[…] polymyxin B; for MBC: Acinetobacter, without polymyxin B, read-out: MBC without PB
How it was run: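 After plating, cultures are held at 37° C for 18-20 hours; the endpoint is then scored by comparing colony growth against the positive control, with MBC defined as the lowest concentration showing roughly 90% reduction.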

A. baumannii A329 = experiment: as above; assay type: cell-based, Acinetobacter baumannii; conditions: for MBC: Acinetobacter baumannii, A329, A. baumannii A329, without polymyxin B, read-out: MBC without PB
A. baumannii A390 = experiment: as above; assay type: cell-based, Acinetobacter baumannii; conditions: preliminary MBC; for MBC: Acinetobacter baumannii, A390, A. baumannii A390, without polymyxin B, read-out: MBC without PB
A. baumannii A401 [6] = experiment: as above; assay type: cell-based, Acinetobacter baumannii; conditions: preliminary MBC; for MBC +0.06 μg/ml PB: A baumannii A 401, +0.06 μg/ml polymyxin B; for MBC: Acinetobacter baumannii, A401, A baumannii A 401, without polymyxin B, read-out: MBC without PB
A. baumannii A472 [7] = experiment: as above; assay type: cell-based, Acinetobacter baumannii; conditions: for MBC +[…] PB: A. baumannii A472, +[…] polymyxin B; for MBC: Acinetobacter baumannii, A472, A. baumannii A472, without polymyxin B, read-out: MBC without PB
A. baumannii A473 [8] = experiment: as above; assay type: cell-based, Acinetobacter baumannii; conditions: for MBC: Acinetobacter baumannii, A473, A. baumannii A473, without polymyxin B, read-out: MBC without PB
A. baumannii A489 [9] = experiment: as above; assay type: cell-based, Acinetobacter baumannii; conditions: for MBC +[…] PB: A. baumannii A489, +[…] polymyxin B; for MBC: Acinetobacter baumannii, A489, A. baumannii A489, without polymyxin B, read-out: MBC without PB
[10] = Acinetobacter spp. H064200250 (OXA51), 2nd experiment
[11] = Acinetobacter spp. H064200250, 1st experiment

MIC without PB/MIC + PB (A. baumannii A401 [1]; A baumannii A 401, ratio, PB 0.06 μg/ml, 1st experiment): 4
MIC (A. baumannii A401 [1]; 1st experiment): 32 µg/mL (≈ 107 µM)
MIC (A. baumannii A401 [1]; 2nd experiment, visual reading): 32 µg/mL (≈ 107 µM)
MIC +[…] PB (A. baumannii A472 [2]; A. baumannii A472, 1st experiment): 0.25 µg/mL (≈ 0.835 µM)
MIC +[…] PB (A. baumannii A472 [2]; A. baumannii A472, 2nd experiment, visual reading): 0.25 µg/mL (≈ 0.835 µM)
MIC ratio without/with polymyxin B (A. baumannii A472 [2]; A. baumannii A472, ratio MIC without PB to MIC + PB, PB […], 2nd experiment): 32 µg/mL
MIC without PB/MIC + PB (A. baumannii A472 [2]; A. baumannii A472, ratio, PB […], 1st experiment): 64
MIC (A. baumannii A472 [2]; 1st experiment): 16 µg/mL (≈ 53.4 µM)
MIC (A. baumannii A472 [2]; 2nd experiment, visual reading): 8 µg/mL (≈ 26.7 µM)
MIC +0.06 μg/ml PB (A. baumannii A473 [3]; A. baumannii A473, +0.06 μg/ml polymyxin B, 2nd experiment, visual reading): 4 µg/mL
MIC without PB/MIC + PB (A. baumannii A473 [3]; A. baumannii A473, ratio, PB 0.06 μg/ml, 2nd experiment): 8
MIC (A. baumannii A473 [3]; 1st experiment): 32 µg/mL (≈ 107 µM)
MIC (A. baumannii A473 [3]; 2nd experiment, visual reading): 32 µg/mL (≈ 107 µM)
MIC +[…] PB (A. baumannii A489 [4]; 1st experiment): 2 µg/mL (≈ 6.68 µM)
MIC +[…] PB (A. baumannii A489 [4]; 2nd experiment, visual reading): 0.25 µg/mL (≈ 0.835 µM)
MIC without PB/MIC + PB (A. baumannii A489 [4]; 1st experiment): 64
MIC without PB/MIC + PB (A. baumannii A489 [4]; 2nd experiment): 256
MIC (A. baumannii A489 [4]; 1st experiment): 128 µg/mL (≈ 428 µM)
MIC (A. baumannii A489 [4]; 2nd experiment, visual reading): 64 µg/mL (≈ 214 µM)
Structure (SMILES): C[C@@H](O)[C@H]1C(=O)N2C(C(=O)O)=C(SCCN=CN)C[C@H]12 [Imipenem, reference compound]
MBC +[…] PB [5, 10]: 0.5 µg/mL (≈ 1.67 µM)
MBC +[…] PB [5, 11]: 2 (0.5)* μg/ml
MBC [5, 10]: 8 µg/mL (≈ 26.7 µM)
MBC [5, 11]: 16 µg/mL (≈ 53.4 µM)
MBC +0.06 μg/ml PB (A. baumannii A329; A. baumannii A329, +0.06 μg/ml polymyxin B, 2nd experiment): 128 µg/mL
MBC (A. baumannii A329; 1st experiment): 128 µg/mL (≈ 428 µM)
MBC (A. baumannii A329; 2nd experiment): > 128 µg/mL
MBC +0.06 μg/ml PB (A. baumannii A390; A. baumannii A390, +0.06 μg/ml polymyxin B, 2nd experiment): 4 µg/mL
MBC (A. baumannii A390; 2nd experiment): 16 µg/mL (≈ 53.4 µM)
MBC (A. baumannii A390; 1st experiment): 16 µg/mL (≈ 53.4 µM)
MBC +0.06 μg/ml PB (A. baumannii A401 [6]; 2nd experiment): 4 µg/mL
MBC +0.06 μg/ml PB (A. baumannii A401 [6]; 1st experiment): 8 µg/mL
MBC (A. baumannii A401 [6]; 2nd experiment): 32 µg/mL (≈ 107 µM)
MBC (A. baumannii A401 [6]; 1st experiment): 32 µg/mL (≈ 107 µM)
MBC +[…] PB (A. baumannii A472 [7]; 1st experiment): 0.25 µg/mL (≈ 0.835 µM)
MBC +[…] PB (A. baumannii A472 [7]; 2nd experiment): 0.25 µg/mL (≈ 0.835 µM)
MBC (A. baumannii A472 [7]; 1st experiment): 16 µg/mL (≈ 53.4 µM)
MBC (A. baumannii A472 [7]; 2nd experiment): 8 µg/mL (≈ 26.7 µM)
MBC +0.06 μg/ml PB (A. baumannii A473 [8]; A. baumannii A473, +0.06 μg/ml polymyxin B, 2nd experiment): 4 µg/mL
MBC (A. baumannii A473 [8]; 1st experiment): 32 µg/mL (≈ 107 µM)
MBC (A. baumannii A473 [8]; 2nd experiment): 32 µg/mL (≈ 107 µM)
MBC +[…] PB (A. baumannii A489 [9]; 1st experiment): 2 µg/mL (≈ 6.68 µM)
MBC +[…] PB (A. baumannii A489 [9]; 2nd experiment): 0.25 µg/mL (≈ 0.835 µM)
MBC (A. baumannii A489 [9]; 1st experiment): 64 µg/mL (≈ 214 µM)
MBC (A. baumannii A489 [9]; 2nd experiment): 64 µg/mL (≈ 214 µM)
